Laboratory results taken from paper PMC9053816, “A polypeptide model for toxic aberrant proteins induced by aminoglycoside antibiotics” (PLoS ONE, 2022).
Entries after “also recorded” stand apart in the source; their conditions may differ. Like-named read-outs stand apart in the source and are kept apart here.

Experiments:
[1] = tested on: E. coli DnaK; details: by comparison with NR and σ32 peptides; cited from earlier work
[2] = tested on: E. coli BL21; assay: Cell viability (colony counts / spot dilution on LB agar); assay type: cell-based, Escherichia coli
Protocol: (§1) All growth studies were performed in Luria-Bertani (LB) broth containing Penicillin G (150 μg/ml), using E. coli BL21 as the host strain except where noted. Frozen stocks of cell strains were first grown overnight at 30°C, without shaking, in 2 ml of LB containing PenG. The starter cultures were then diluted 1:100 in 3.5 ml of LB containing PenG, in plastic 15x90 mm tubes with loose-fitting caps, and the tubes were then tilted about 15–20 degrees from vertical and incubated at 37°C with shaking (300 rpm). Cell growth for all experiments except those shown in Fig 1 was monitored at the indicated times by measuring the optical density of culture samples (diluted 1:10 in saline) at 600 nm, using a Perkin Elmer Lambda 14 UV/VIS spectrophotometer and semi-micro glass cuvettes (1 ml sample volume). For the experiments shown in Fig 1, OD600 measurements were performed on 200 μl of undiluted culture using a 96-well plate reader. […] To measure cell viability, culture samples were serially diluted in LB broth, mixed with molten top agar and plated on LB agar containing PenG. The number of colonies was then counted after overnight incubation of plates at 37°C.
Supplementary file pone.0258794.s001.tif: S1 Fig Bactericidal effect of Kanamycin. Samples of an E. coli BL21 culture growing in LB broth were treated at early log phase (T = 0) with Cm (30 μg/ml) or Kan (50 μg/ml). After further incubation at 37°C for 30 or 60 min, samples of the untreated (UT) and antibiotic-treated cultures were diluted (serial 1:10), and 3 μl of each dilution was spotted onto an LB agar plate. The plate was then photographed after incubation overnight at 37°C. (TIF) Click here for additional data file.

[3] = tested on: E. coli BL21 cells; assay: Hoechst 33342 uptake by fluorescence microscopy; assay type: cell-based, Escherichia coli
Protocol: (§2) Culture samples (0.3 ml) collected at the indicated times were centrifuged and the cell pellets were resuspended in 20–100 μl of Tris-buffered saline pH 8 (TBS) and held on ice. Cell suspensions were then stained with 1 μl of Hoechst 33342 (10 mg/ml stock solution was first diluted 1:100 in TBS). After incubation for 10 min on ice, 2 μl samples of cell suspension were mounted on coverslides using agarose blocks as described. Cells were then examined by epi-fluorescence microscopy, using a Zeiss Axiophot and a 63X oil immersion lens. Exposure times for 2-channel images (both transmitted and reflected light) were set automatically using on-board Zen 2011 software. In some experiments as noted, exposure times for reflected light images were fixed at 1 s, for comparison of relative fluorescence intensity. Brightfield images of E. coli cell aggregates were taken with a Nikon Eclipse T2 inverted microscope using a 20X lens and laser-based LED white light source, located at the Brookhaven National Laboratory Center for Functional Nanomaterials.

[4] = tested on: E. coli BL21 nucleoids; assay: Nucleoid conformation by fluorescence microscopy; assay type: cell-based, Escherichia coli; details: for Nucleoid conformation: H33342 staining, BL21 (Fig 6, S6 Fig)
Protocol: as §2
A culture sample also was left untreated (UT) for comparison. Cell samples were then collected after further incubation for 20, 40 or 60 min, washed with PBS, stained with H33342, and mounted on glass slides under agarose pads for fluorescence microscopy using a 40X oil immersion lens. The exposure time for each image was automatically set by microscope software. Scale bar = 20 μm. (TIF) Click here for additional data file.

[5] = tested on: E. coli BL21; assay: Growth analysis (culture OD600); assay type: cell-based, Escherichia coli
Protocol: as §1

[6] = tested on: E. coli BL21 nucleoids; design: method as in PMID 25250841; details: transcription inhibited; cited from earlier work
[7] = tested on: σ32 transcription factor
Protocol: E, Western blot analysis of σ32 levels in cells following exposure to the indicated antibiotics for 20, 60, or 120 min as indicated. Cell extract from a non-induced culture was loaded in lane 1.
Equal volumes of cell cultures were centrifuged, and cell pellets were resuspended directly in 2X Laemmli sample buffer at a concentration of 5 OD600 units per ml based on culture OD600 at the time of sampling. To reduce viscosity, samples were sonicated using a cuphorn sonicator or passed through a 27-gauge needle prior to loading on SDS-polyacrylamide gels. Proteins were visualized either by staining gels directly with Coomassie Blue or after semi-dry electroblotting to immobilon membranes for Western blot analysis. Anti-σ32 monoclonal antibodies were purchased from BioLegend, San Diego, CA. Rabbit anti-DnaK and DnaJ serum was kindly provided by B. Bukau. Anti-GroEL antibodies were purchased from Sigma-Aldrich.
An aliquot of culture also was left untreated (NI) for comparison. Cultures were then incubated at 37°C with shaking, and cell growth was monitored by measuring culture optical density at 600 nm (OD600) using a microplate reader. B, samples of each culture were collected at 20, 60 and 90 min after treatment, and cells were lysed in 2X SDS-PAGE sample buffer at a concentration of 1.2 OD600 units per ml. Equal volumes of each sample were then analyzed by Western blotting, using antibodies against σ32 and σ70. Only the 20 min and 60 min samples of the Spectinomycin-treated culture were analyzed.

Compound: Kemptide
- Recognition by DnaK (earlier studies) [1]: poorly recognized

Compound: O=C(N[C@H](CO)[C@H](O)c1ccc([N+](=O)[O-])cc1)C(Cl)Cl [Cm, chloramphenicol]
- Cell viability following growth arrest ([2]; 30 μg/ml, samples at 0, 1, 2 and 5 h (Fig 2E)): remained viable for several hours
- Cell viability during exposure ([2]; Cm 30 μg/ml, 30 or 60 min (S1 Fig)): fully retained
- Cell viability at higher concentration ([2]; higher concentration than 30 μg/ml (200 μg/ml, Fig 2E)): increasingly toxic
- Exposure time set automatically by camera software (H33342 fluorescence) ([3]; 10 min after ARF48 induction or 60 min after Cm 30 or 200 μg/ml, non-induced culture 1.7 s): 0.22 s
- Uptake of H33342 following exposure ([3]; Cm 30 or 200 μg/ml (Fig 6)): enhanced
- Nucleoid conformation [4]: radially condensed
- Time until nucleoids radially condensed ([4]; after induction of expression or after exposure): 30 to 45 min

Compound: Cc1c2c(c(O)c3c(O)cccc13)C(=O)[C@]1(O)C(=O)C(C(N)=O)=C(O)[C@@H](N(C)C)[C@@H]1C2 [aTc, anhydrotetracycline]
- Cell growth ([5]; 0.2 μg/ml in culture medium): not inhibited; also recorded: does not inhibit growth

Compound: CO[C@H]1/C=C/O[C@@]2(C)Oc3c(C)c(O)c4c(O)c(c(/C=N/N5CCN(C)CC5)c(O)c4c3C2=O)NC(=O)/C(C)=C\C=C\[C@H](C)[C@H](O)[C@@H](C)[C@@H](O)[C@@H](C)[C@H](OC(C)=O)[C@@H]1C [rifampicin]
- Nucleoid conformation [6]: transient condensation

Compound: CN[C@@H]1[C@H](O)[C@H](NC)[C@H]2O[C@@]3(O)C(=O)C[C@@H](C)O[C@H]3O[C@@H]2[C@H]1O [spectinomycin]
- σ32 levels following exposure ([7]; non-resistant cells, 20 μg/ml, 20 and 60 min (S2 Fig)): unchanged

Compound: NC[C@H]1O[C@H](O[C@H]2[C@H](O)[C@@H](O[C@H]3O[C@H](CO)[C@@H](O)[C@H](N)[C@H]3O)[C@H](N)C[C@@H]2N)[C@H](O)[C@@H](O)[C@@H]1O [Kan, kanamycin]
- Cell division ([5]; low dose 3 μg/ml): slowed but did not completely halt cell division
- Decrease of cell viability ([2]; first hour of exposure, Kan 50 μg/ml (S1 Fig)): 5–6 orders of magnitude
- Nucleoid conformation [4]: only transient
- σ32 concentration over time ([7]; 20, 60 or 120 min of exposure (Fig 1E)): remained elevated
- σ32 level in cells ([7]; 60 min after exposure, range of doses (Fig 1D)): accumulated to high relative concentration
